The IC50 is the concentration needed to halve the response being measured.

Read-outs that look alike come from different tables or passages of the source.

The source of these data is patent US10112918B2, “15-oxospiramilactone derivatives, preparation method and uses thereof” (Kunming Institute of Botany, The Chinese Academy of Sciences, priority 2013, dated 2018).

What all share (assay type): cell-based
For test [1], the system named is SMMC-7721 (human hepatoma cells). The test is described as follows: MTT inhibition of tumor cell growth, SMMC-7721. The conditions noted are these: Homo sapiens, SMMC-7721, 48 h. The procedure, abridged: (§1)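 Seed 5000-10000 cells/well (adherent lines 12 h ahead); add compound at 40 μM or, for hits near 50% inhibition, 5 concentrations; incubate 48 h at 37° C; add MTT 4 h, dissolve in 10% SDS overnight; read 595 nm; derive IC50 by Reed-Muench.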

Test [2] has as its system A-549 (Human lung adenocarcinoma cells). The test is described as follows: MTT inhibition of tumor cell growth, A-549. The conditions noted are these: Homo sapiens, A549, 48 h. The procedure, abridged: as §1
Test [3] relates to HL-60 (human promyelocytic leukemia cells). The test is described as follows: MTT inhibition of tumor cell growth, HL-60. The conditions noted are these: Homo sapiens, HL-60, 48 h. The gist of the method: as §1
Test [4] has as its system SW-480 (human colon cancer cells). Description: MTT inhibition of tumor cell growth, SW-480. As to conditions: Homo sapiens, SW480, 48 h. The procedure, abridged:
as §1

Test [5] has as its system MCF-7 (human breast cancer cells). Description: MTT inhibition of tumor cell growth, MCF-7. As to conditions: Homo sapiens, MCF7, 48 h. The gist of the method: as §1
In test [6] the test system is Wnt signaling pathway (Top-Flash reporter gene). The test is described as follows: Top-Flash Wnt reporter gene assay in HEK293T cells with Wnt3a conditioned medium. The conditions noted are these: Homo sapiens, HEK-293T, 6 h, HEK293T, Wnt3a conditioned medium, 6 h. The method, then: HEK293T cells were cultured in DMEM containing 10% fetal bovine serum (Invitrogen) at 37° C., 5% CO2. The cells were passaged every other day. The density was retained at 70˜80% during passage. L cell line (CRL-2647, purchased from the gene bank of ATCC, the US) and the control cell line (CRL-2648, purchased from ATCC, US), which stably secreted mouse Wnt3a protein, were cultured in DMEM containing 50 ug/ml G418 and 10% fetal bovine serum, at 37° C., 5% CO2. When the cells grew to a density of about 70%, the medium was replaced with DMEM containing 10% fetal bovine serum. After continuous culture for 4 days, the culture was collected and centrifuged, and the supernatant was kept so that the Wnt conditioned medium was obtained. After titration assay, the conditioned medium was quick-frozen in liquid nitrogen, and placed at −80° C. for long-term storage, so that the titer was kept unchanged.
The cells were seeded to a 48-well plate at a density of […] cells per well, and transfected 20 h later. The reagents for plasmid transfection were calculated based on the amount in each well of the 48-well plate as following: the total amount of plasmid was 125 ng/well; the plasmid was first added to a serum-free medium (25 μL/well) and mixed well; PLUS reagent (Invitrogen) was then added in an amount of 0.5 μL/well and mixed well, then stood for 15 min; Lipofectamine (Invitrogen) liposome was added in an amount of 0.5 μL/well to serum-free DMEM medium (25 μL/well), and then mixed with the solution containing the plasmid and the PLUS, and stood for 15 min. The cells were cultured in serum-free DMEM medium (100 μL/well), and the final mixture of plasmid, PLUS and Lipofectamine were added to the cells. After incubation for 3 h, the transfection was stopped by the medium containing 10% fetal bovine serum (200 μL/well).
The HEK293T cells used for activity assay of the report gene were transfected by the method as shown in 2). Activity assay of Wnt reporter gene: the amount of plasmid for transfection was 5 ng/well for TOP-flash and 5 ng/well for GFP plasmid as internal standard, with lacZ added to reach a total amount of 125 ng/well. […] After treating for 6 h, Boehringer Mannheim Luci-ferase Assay Kit was used to lyse cells (200 μL/well). 50 μL from each well was pipetted into a 96-well plate. The indensity of GFP protein in the cell lysate was measured by fluorimeter FL600 (BIO-TEK Inc. Winooski, Vt.), and taken as internal standard for cell transfection efficiency. 10 μL substrate of luciferase was then added to each well, and the activity of luciferase was measured by Micro Lumate Plus (Perkin Elmer Inc. Wellesley, Mass.) luminometer. Finally, GFP indensity was used as internal standard to calibrate the activity of luciferase, i.e. the activity of Wnt reporter gene.
Calculation of IC50 (taking the calculation of IC50 of the Wnt signaling pathway for example): background (the activity as measured in the groups treated with a conditioned medium containing DMSO only) was subtracted from the reporter gene activity as measured in the groups treated by Wnt3a conditioned medium with or without the compound to be tested at different concentrations; and the obtained value was defined as the activity of the reporter gene induced by Wnt or the residual activity of the reporter gene after adding the compound to be tested. The residual activity was normalized by the activity induced by Wnt to get the relative residual activity. Then combine with the concentrations of the compound to be tested to plot a linear graph, and a dose-effect curve was fitted based on 4-parameter logistic fit. IC50 of the Wnt signaling pathway is determined as the concentration at which the relative residual activity is 0.5.
In general terms: Reporter assays use an easily measured gene product as a stand-in for the process of interest.

Setting [7] is: Table 2, derivatives having potential Michael reaction acceptor.
The mark [8] stands for this setting: Table 2, derivatives having potential Michael reaction acceptor, read-out: IC50 SW-480.
The mark [9] stands for this setting: Table 9, read-out: IC50(μM), inhibitory activity on the Wnt signaling pathway.
Where [10] appears, read: Table 5, derivatives having double Michael reaction acceptor.
Setting [11] is: Table 5, derivatives having double Michael reaction acceptor, read-out: IC50 SW-480.
Setting [12] is: Table 3, single Michael reaction acceptor, modified lactonic ring.
Setting [13] is: Table 3, single Michael reaction acceptor, modified lactonic ring, read-out: IC50 SW-480.
The mark [14] stands for this setting: Table 6, 7-hydroxyl derivatives and controls, read-out: IC50 SW-480, 7-hydroxyl derivatives.
The mark [15] stands for this setting: Table 8, read-out: IC50 (μM), inhibitory activity on the Wnt signaling pathway.

With `C=C1C(=O)[C@]23CC[C@H]1CC2[C@@]12CCC[C@@](C)(COC1=O)C2[C@H](CO)C3=O` (stereo partly shown) [Compound 11], the IC50 in test [1] (setting [7]) came out at 2.48 µM; in test [2] (setting [7]), 2.44 µM; in test [3] (setting [7]), 3.85 µM; in test [4] (setting [8]) it was 2.8 µM; in test [5] (setting [7]) it was 3.94 µM; in test [6] (setting [9]), 6.89 ± 0.27 µM.

On to `C=C1C(=O)[C@]23CC[C@H]1CC2[C@@]12CCC[C@@](C)(COC1=O)C2[C@H](SC)C3=O` (stereo partly shown) [Compound 12], for which the IC50 was found to be 2.41 µM in test [1] (setting [7]); 3.14 µM in test [2] (setting [7]); 4.69 µM in test [3] (setting [7]); 3.71 µM in test [4] (setting [8]); 4.83 µM in test [5] (setting [7]); 19.8 ± 1.34 µM in test [6] (setting [9]).

In the case of `C=C1C(=O)[C@]23CC[C@H]1CC2[C@@]12CCC[C@@](C)(COC1=O)C2[C@H](Br)C3=O` (stereo partly shown) [Compound 13], the concentration for half-maximal inhibition (IC50) came out at 0.83 µM in test [1] (setting [7]); 0.73 µM in test [2] (setting [7]); 3.86 µM in test [3] (setting [7]); 1.21 µM in test [4] (setting [8]); 1.51 µM in test [5] (setting [7]); 16.5 ± 1.16 µM in test [6] (setting [9]).

For the compound `C=C1C(=O)[C@]23CC[C@H]1CC2[C@@]12CCC[C@@](C)(COC1=O)C2[C@H](Cl)C3=O` (stereo partly shown) [Compound 14], the IC50 in test [1] (setting [7]) came out at 1.96 µM; in test [2] (setting [7]) it was 3.03 µM; in test [3] (setting [7]), 3.82 µM; in test [4] (setting [8]), 2.38 µM; in test [5] (setting [7]), 2.63 µM; in test [6] (setting [9]) it was 20.1 ± 1.32 µM.

`C=C1C(=O)[C@]23CC[C@H]1CC2[C@@]12CCC[C@@](C)(COC1=O)C2=CC3=O` (stereo partly shown) [Compound 15]: the IC50 in test [1] (setting [10]) stood at 0.8 µM; in test [2] (setting [10]) it was 0.91 µM; in test [3] (setting [10]) it was 0.8 µM; in test [4] (setting [11]), 1.21 µM; in test [5] (setting [10]), 1.44 µM; in test [6] (setting [9]), 11.1 ± 0.63 µM.

In the case of `C=C1C(=O)[C@@]23CC[C@@H](CC2[C@@]24CCC[C@@](C)(COC2=O)C14)C(=C)[C@@H]3O` (stereo partly shown) [Compound 16], the IC50 came out at 12 µM in test [1] (setting [7]); 4.77 µM in test [2] (setting [7]); 5.56 µM in test [3] (setting [7]); 11.4 µM in test [4] (setting [8]); 3.09 µM in test [5] (setting [7]); 8.27 ± 1.24 µM in test [6] (setting [9]).

For `C=C1C(=O)[C@]23CC[C@H]1CC2[C@@]12CCC[C@@](C)(CO[C@H]1OC)C2C[C@H]3O` (stereo partly shown) [Compound 21], the IC50 was determined as 1.87 µM in test [1] (setting [12]); 3.17 µM in test [2] (setting [12]); 4.2 µM in test [3] (setting [12]); 4.19 µM in test [4] (setting [13]); 2.9 µM in test [4] (setting [14]); 5.04 µM in test [5] (setting [12]). For the same compound, the half-maximal inhibitory concentration (IC50) in test [6] (setting [15]) turned out to be 27.4 ± 0.98 µM.

`C=C1C(=O)[C@]23CC[C@H]1CC2[C@@]12CCC[C@@](C)(CO[C@H]1OC)C2CC3=O` (stereo partly shown) [Compound 22]: the half-inhibitory concentration (IC50) in test [1] (setting [12]) amounted to 0.51 µM; in test [2] (setting [12]) it was 0.67 µM; in test [3] (setting [12]) it was 1.46 µM; in test [4] (setting [13]) it was 2.2 µM; in test [4] (Table 6, 7-carbonyl derivatives, read-out: IC50 SW-480, 7-carbonyl derivatives), 2.56 µM; in test [5] (setting [12]) it was 1.57 µM. For the same compound, the IC50 in test [6] (setting [15]) was determined as 17.6 ± 1.9 µM.

Regarding `C=C1C(=O)[C@@]23CC[C@@H](CC2[C@@]24CCC[C@@](C)(CO[C@H]2OC)C14)C(=C)C3=O` (stereo partly shown) [Compound 23], the concentration for half-maximal inhibition (IC50) in test [1] (setting [10]) turned out to be 0.15 µM; in test [2] (setting [10]) it was 0.2 µM; in test [3] (setting [10]), 0.51 µM; in test [4] (setting [11]), 0.39 µM; in test [4] (Table 6, double Michael reaction acceptor derivatives, read-out: IC50 SW-480, derivatives having double Michael reaction acceptor), 0.79 µM; in test [5] (setting [10]) it was 0.24 µM. Also, the IC50 in test [6] (setting [9]) came to 6.72 ± 1.11 µM.

On to `C=C1C(=O)[C@]23CC[C@H]1CC2[C@@]12CCC[C@@](C)(COC1)C2C[C@H]3O` (stereo partly shown) [Compound 25], for which the IC50 in test [1] (setting [12]) worked out at 4.92 µM; in test [2] (setting [12]), 3.25 µM; in test [3] (setting [12]) it was 4.87 µM; in test [4] (setting [13]), 6.33 µM; in test [4] (setting [14]), 4.12 µM; in test [5] (setting [12]), 4 µM. Further, the concentration for half-maximal inhibition (IC50) in test [6] (setting [15]) was determined as 21.7 ± 0.63 µM.
